Results reported in patent US12421243B2, “Pharmaceutically effective compounds inhibiting selectively the myosin 2 isoforms” (PRINTNET KERESKEDELMI ÉS SZOLGÁLTATÓ KFT., priority 2018, dated 2025).

Tested on: S. typhimurium TA100
Assay: Ames Reverse Mutagenicity Assay (Ames MPF Test), TA100
Type: cell-based
Method: Mutagenicity of the compounds was determined in the Ames Reverse Mutagenicity Assay (Ames MPF Test, Xenometrix Inc.) approved by the OECD, EMA and FDA on S. typhimurium TA98 and TA100 strains without or in the presence of S9 rat liver fraction. Relative mutagenicity values were prepared using a table provided by the manufacturer. Relative mutagenicity values according to OECD, EMA, and FDA standards may not exceed 2 at any concentration because in such a case they are potentially mutagenic.

Structure (SMILES): O=C1c2ccsc2N=C2N(c3ccc(N4CCOCC4)cc3)CCC12O (stereo not drawn) [Compound 188, 9-Hydroxy-12-[4-(morpholin-4-yl)phenyl]-4-thia-2,12-diazatricyclo[7.3.0.0^3,7]dodeca-1,3(7),5-trien-8-one]
- Relative mutagenicity (as compared to the control value) (TA100, +S9, 31.25 μM): 0.4
- Relative mutagenicity (as compared to the control value) (TA100, +S9, 62.5 μM): 0.3
- Relative mutagenicity (as compared to the control value) (TA100, +S9, 125 μM): 0.6
- Relative mutagenicity (as compared to the control value) (TA100, +S9, 250 μM): 0.6
- Relative mutagenicity (as compared to the control value) (TA100, +S9, 500 μM): 0.6
- Relative mutagenicity (as compared to the control value) (TA100, +S9, 1000 μM): 0.5
- Relative mutagenicity (as compared to the control value) (TA100, −S9, 31.25 μM): 0.8
- Relative mutagenicity (as compared to the control value) (TA100, −S9, 62.5 μM): 0.5
- Relative mutagenicity (as compared to the control value) (TA100, −S9, 125 μM): 0.6
- Relative mutagenicity (as compared to the control value) (TA100, −S9, 250 μM): 0.5
- Relative mutagenicity (as compared to the control value) (TA100, −S9, 500 μM): 0.6
- Relative mutagenicity (as compared to the control value) (TA100, −S9, 1000 μM): 0.7
